# Measurements reported in the supplement of paper PMC10307832.
# Assays:
# Assay in all cases: relative viability (nuclei count vs DMSO), 5 days (fraction); higher = more cells survive
# NCI-H2347 = tested on: NCI-H2347
# Outline: (§1)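 The day after seeding in 1536-well plates, lung cancer cell lines were treated by pin tool with a single drug, or with a fixed anchor-drug dose together with five library-drug doses (not always all listed) in √10 steps. After 5 days, a combined fix-and-stain solution (final 0.05% Triton X-100, 1% formaldehyde, 1 ug/ml Hoechst) was added. Nuclei counted on 4× images gave relative viability as treated counts over vehicle counts, reported as the median of duplicate plates.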
# EKVX = tested on: EKVX
# Outline: as §1
# PC-3 [JPC-3] = tested on: PC-3 [JPC-3]
# Outline: as §1
# LOU-NH91 = tested on: LOU-NH91
# Outline: as §1
# NCI-H650 = tested on: NCI-H650
# Outline: as §1
# NCI-H838 = tested on: NCI-H838
# Outline: as §1
# SW 1573 = tested on: SW 1573
# Outline: as §1
# LCLC-97TM1 = tested on: LCLC-97TM1
# Outline: as §1
# LU99A = tested on: LU99A
# Outline: as §1
# NCI-H1650 = tested on: NCI-H1650
# Outline: as §1
# LC-2-ad = tested on: LC-2-ad
# Outline: as §1
# NCI-H1915 = tested on: NCI-H1915
# Outline: as §1
# NCI-H23 = tested on: NCI-H23
# Outline: as §1
# RERF-LC-KJ = tested on: RERF-LC-KJ
# Outline: as §1
# NCI-H1355 = tested on: NCI-H1355
# Outline: as §1
# NCI-H1993 = tested on: NCI-H1993
# Outline: as §1
# NCI-H1793 = tested on: NCI-H1793
# Outline: as §1
# BEN = tested on: BEN
# Outline: as §1
# NCI-H1666 = tested on: NCI-H1666
# Outline: as §1
# NCI-H460 = tested on: NCI-H460
# Outline: as §1
# A-427 = tested on: A-427
# Outline: as §1
# NCI-H520 = tested on: NCI-H520
# Outline: as §1
# NCI-H1648 = tested on: NCI-H1648
# Outline: as §1
# NCI-H2228 = tested on: NCI-H2228
# Outline: as §1
compound,measurement,setting,value
CCCCCCCCCCCC1=C(O)C(=O)C=C(O)C1=O [Embelin] + COc1cccc2cc(-c3nc([C@H]4CC[C@H](C(=O)O)CC4)n4ncnc(N)c34)[nH]c12 [OSI-027] (partner 0.5 µM),relative viability,NCI-H2347; first compound 0.08 µM,0.428
same,relative viability,NCI-H2347; first compound 0.8 µM,0.468
same,relative viability,NCI-H2347; first compound 2.53 µM,0.412
same,relative viability,NCI-H2347; first compound 8 µM,0.527
same,relative viability,EKVX; first compound 0.08 µM,0.715
same,relative viability,EKVX; first compound 0.8 µM,0.677
same,relative viability,EKVX; first compound 2.53 µM,0.789
same,relative viability,EKVX; first compound 8 µM,0.743
same,relative viability,PC-3 [JPC-3]; first compound 0.08 µM,0.759
same,relative viability,PC-3 [JPC-3]; first compound 0.8 µM,0.752
same,relative viability,PC-3 [JPC-3]; first compound 2.53 µM,0.829
same,relative viability,PC-3 [JPC-3]; first compound 8 µM,0.867
same,relative viability,LOU-NH91; first compound 0.08 µM,0.691
same,relative viability,LOU-NH91; first compound 0.8 µM,0.851
same,relative viability,LOU-NH91; first compound 2.53 µM,0.743
same,relative viability,LOU-NH91; first compound 8 µM,0.755
same,relative viability,NCI-H650; first compound 0.08 µM,0.421
same,relative viability,NCI-H650; first compound 0.8 µM,0.623
same,relative viability,NCI-H650; first compound 2.53 µM,0.388
same,relative viability,NCI-H650; first compound 8 µM,0.549
same,relative viability,NCI-H838; first compound 0.08 µM,0.403
same,relative viability,NCI-H838; first compound 0.8 µM,0.463
same,relative viability,NCI-H838; first compound 2.53 µM,0.38
same,relative viability,NCI-H838; first compound 8 µM,0.436
same,relative viability,SW 1573; first compound 0.08 µM,0.6
same,relative viability,SW 1573; first compound 0.8 µM,0.768
same,relative viability,SW 1573; first compound 2.53 µM,0.896
same,relative viability,SW 1573; first compound 8 µM,0.573
same,relative viability,LCLC-97TM1; first compound 0.08 µM,0.376
same,relative viability,LCLC-97TM1; first compound 0.8 µM,0.638
same,relative viability,LCLC-97TM1; first compound 2.53 µM,0.494
same,relative viability,LCLC-97TM1; first compound 8 µM,0.589
same,relative viability,LU99A; first compound 0.08 µM,0.323
same,relative viability,LU99A; first compound 0.8 µM,0.358
same,relative viability,LU99A; first compound 2.53 µM,0.27
same,relative viability,LU99A; first compound 8 µM,0.282
same,relative viability,NCI-H1650; first compound 0.08 µM,0.791
same,relative viability,NCI-H1650; first compound 0.8 µM,0.801
same,relative viability,NCI-H1650; first compound 2.53 µM,0.653
same,relative viability,NCI-H1650; first compound 8 µM,0.598
same,relative viability,LC-2-ad; first compound 0.08 µM,0.85
same,relative viability,LC-2-ad; first compound 0.8 µM,1.02
same,relative viability,LC-2-ad; first compound 2.53 µM,0.97
same,relative viability,LC-2-ad; first compound 8 µM,0.516
same,relative viability,NCI-H1915; first compound 0.08 µM,0.679
same,relative viability,NCI-H1915; first compound 0.8 µM,0.707
same,relative viability,NCI-H1915; first compound 2.53 µM,0.602
same,relative viability,NCI-H1915; first compound 8 µM,0.653
same,relative viability,NCI-H23; first compound 0.08 µM,0.695
same,relative viability,NCI-H23; first compound 0.8 µM,0.672
same,relative viability,NCI-H23; first compound 2.53 µM,0.582
same,relative viability,NCI-H23; first compound 8 µM,0.562
same,relative viability,RERF-LC-KJ; first compound 0.08 µM,0.585
same,relative viability,RERF-LC-KJ; first compound 0.8 µM,0.529
same,relative viability,RERF-LC-KJ; first compound 2.53 µM,0.545
same,relative viability,RERF-LC-KJ; first compound 8 µM,0.494
same,relative viability,NCI-H1355; first compound 0.08 µM,0.445
same,relative viability,NCI-H1355; first compound 0.8 µM,0.559
same,relative viability,NCI-H1355; first compound 2.53 µM,0.422
same,relative viability,NCI-H1355; first compound 8 µM,0.279
same,relative viability,NCI-H1993; first compound 0.08 µM,0.577
same,relative viability,NCI-H1993; first compound 0.8 µM,0.556
same,relative viability,NCI-H1993; first compound 2.53 µM,0.606
same,relative viability,NCI-H1993; first compound 8 µM,0.547
same,relative viability,NCI-H1793; first compound 0.08 µM,0.281
same,relative viability,NCI-H1793; first compound 0.8 µM,0.367
same,relative viability,NCI-H1793; first compound 2.53 µM,0.237
same,relative viability,NCI-H1793; first compound 8 µM,0.243
same,relative viability,BEN; first compound 0.08 µM,0.287
same,relative viability,BEN; first compound 0.8 µM,0.341
same,relative viability,BEN; first compound 2.53 µM,0.338
same,relative viability,BEN; first compound 8 µM,0.289
same,relative viability,NCI-H1666; first compound 0.08 µM,0.798
same,relative viability,NCI-H1666; first compound 0.8 µM,0.935
same,relative viability,NCI-H1666; first compound 2.53 µM,0.871
same,relative viability,NCI-H1666; first compound 8 µM,0.865
same,relative viability,NCI-H460; first compound 0.08 µM,0.683
same,relative viability,NCI-H460; first compound 0.8 µM,0.88
same,relative viability,NCI-H460; first compound 2.53 µM,0.958
same,relative viability,NCI-H460; first compound 8 µM,0.751
same,relative viability,A-427; first compound 0.08 µM,0.424
same,relative viability,A-427; first compound 0.8 µM,0.495
same,relative viability,A-427; first compound 2.53 µM,0.439
same,relative viability,A-427; first compound 8 µM,0.497
same,relative viability,NCI-H520; first compound 0.08 µM,0.227
same,relative viability,NCI-H520; first compound 0.8 µM,0.319
same,relative viability,NCI-H520; first compound 2.53 µM,0.401
same,relative viability,NCI-H520; first compound 8 µM,0.238
same,relative viability,NCI-H1648; first compound 0.08 µM,0.263
same,relative viability,NCI-H1648; first compound 0.8 µM,0.293
same,relative viability,NCI-H1648; first compound 2.53 µM,0.248
same,relative viability,NCI-H1648; first compound 8 µM,0.278
same,relative viability,NCI-H2228; first compound 0.08 µM,0.697
same,relative viability,NCI-H2228; first compound 0.8 µM,0.673
same,relative viability,NCI-H2228; first compound 2.53 µM,0.726
same,relative viability,NCI-H2228; first compound 8 µM,0.485
